The source of these data is patent publication US12049483B2, “Selective and noncovalent inhibitors of oncogenic RAS mutants” (New York University, priority 2020, dated 2024).

Peptide text beside a SMILES is read from it. * marks the point of attachment. Cbz = O=C(OCc1ccccc1)*

In assay [1] the target is T1, KRAS(G12C) (Homo sapiens, UniProt P01116, G12C). As to the kind of experiment: Yeast display binding titration, KRAS(G12C). Also noted: KRAS4B residues 1-174 containing G12C, G12V, G12D, G13D, Q61L, WT; His6 (N, cleaved yes); Avi-tag (N, cleaved yes); made in house; host or cells: E. coli BL21(DE3). The note with it: ARS1620 added during nucleotide exchange. The method, then: Nucleotide exchange of RAS. Purified RAS proteins used in binding experiment and crystallization were prepared by diluting stock protein (typically containing 20-250 μM RAS) 25 times with 20 mM Tris-Cl buffer pH 7.5 containing 5 mM EDTA, 0.1 mM DTT and 1 mM final concentration of a nucleotide (GDP or GTPγS). Samples were incubated at 30° C. for 30 minutes. MgCl2 was then added to the sample at a final concentration of 20 mM and the solution was further incubated on ice for at least 5 minutes prior to use.
(§1) Monobody development. General procedures for the development of monobodies against purified protein targets have been described previously. After four rounds of phage display library selection using biotinylated KRAS(G12C) at concentrations of 100 nM, 100 nM, 50 nM and 50 nM, the genes encoding monobodies from the enriched phage pool were transferred to a yeast display vector, which was used to construct yeast-display libraries. The yeast display libraries were sorted using a Bio-Rad S3e fluorescence-activated cell sorter or a […] II cell sorter (BD Biosciences). […] Single clones were then screened for selective binding to RAS mutants. The expression of monobodies on the surface of yeast cells were detected using mouse anti-VS and anti-mouse IgG-FITC conjugate. Target binding was detected with neutravidin Dylight650. Yeast cells were analyzed using an iQue flow cytometer (Sartorius). […]
Target sequence in this assay (P01116 1-174 isoform P01116-2 G12C): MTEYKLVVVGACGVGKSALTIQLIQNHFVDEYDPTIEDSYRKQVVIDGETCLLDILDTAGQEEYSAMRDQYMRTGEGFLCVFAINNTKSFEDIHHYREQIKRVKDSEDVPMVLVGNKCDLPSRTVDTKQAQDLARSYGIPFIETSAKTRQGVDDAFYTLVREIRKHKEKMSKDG

In the next assay the test system is ERK activation (pERK). Description: ERK activation in dox-inducible monobody-expressing cell lines. The format is cell-based. The note with it: H358; after 24 and 48 hours; dox-induced expression or ARS1620 treatment. As to the method: Cell signaling assay and quantification of immunoblots. Cells were lysed in RIPA buffer (50 mM Tris-Cl pH 8, 150 mM NaCl, 5 mM EDTA pH8, 0.1% SDS, 1% NP40) supplemented with protease inhibitors (Roche; 5892991001) and phosphatase inhibitors (54 mM β-glycerophosphate, 10 mM NaF, 1 mM sodium vanadate) for 15 minutes on ice, and centrifuged at 15,000 g for 15 minutes. The supernatant was collected and measured for total protein amount using BCA assay (Thermo Scientific; 23227). Lysate (7-20 μg per well) was loaded onto a pre-cast SDS gel (BioRad; 456-1096) followed by electrophoresis. The proteins were then transferred from the gel to a low fluorescence background PVDF membrane (Millipore; IPFL00010) or regular PVDF membrane (Millipore; ISEQ00010) depending on whether fluorescence or chemiluminescence detection was performed. Phospho-ERK was detected using a rabbit anti-pERK antibody (Cell Signaling; 9101S) and total ERK was detected using a rabbit anti-ERK antibody (Cell Signaling; 9102S). Monobody expression was detected using mouse anti-Flag antibody (Sigma; F3165) or anti-HA tag antibody (BioLegend; 901516). Loading control was detected with primary antibody against tubulin-alpha (Thermo Scientific, 62204) or against cytochrome oxidase (COX IV) (Li-Cor, 926-42214). The total RAS level was detected using a pan-RAS antibody (SCBT, sc-166691). The KRAS level was determined using a KRAS-specific antibody (Sigma, WH0003845M1). For fluorescence detection of immunoblots, the membranes were imaged with a Licor Odyssey Clx imager (Li-Cor Bioscience) using IRDye anti-Rabbit 800CW and anti-Mouse 680LT (Li-Cor Bioscience, 926-32211 and 926-68020, respectively) as secondary antibodies. […] Band intensities of western blot were analyzed with Image Studio Lite version 5.2 (Li-Cor Bioscience). To quantify protein abundance in the degradation experiment, the intensities of pERK, RAS, KRAS, and Flag/HA tag bands were first normalized against the loading control of the perspective blot, which were either tubulin-α, COX IV or total ERK, followed by subsequent normalization to the zero time point. […]

Assay [2] deals with T1, KRAS(G12C). As to the kind of experiment: Degradation of KRAS in RASless MEFs by VHL-monobody fusions. The format is cell-based, mouse. Further details: expressed in transfected cells; host or cells: RASless mouse embryonic fibroblasts. As to conditions: MLN4924 1 μM or MG132 5 μM for 24 hours. As to the method:
as §1
Target sequence in this assay (P01116 1-188 isoform P01116-2 G12C): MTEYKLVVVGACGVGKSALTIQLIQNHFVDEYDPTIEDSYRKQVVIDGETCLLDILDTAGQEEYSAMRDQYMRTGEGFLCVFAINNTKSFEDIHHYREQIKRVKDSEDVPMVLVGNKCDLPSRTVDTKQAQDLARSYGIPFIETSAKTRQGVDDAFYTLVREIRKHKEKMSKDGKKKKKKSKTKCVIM
Cell signaling assay and quantification of immunoblots. […] The supernatant was collected and measured for total protein amount using BCA assay (Thermo Scientific; 23227). […] The proteins were then transferred from the gel to a low fluorescence background PVDF membrane (Millipore; IPFL00010) or regular PVDF membrane (Millipore; ISEQ00010) depending on whether fluorescence or chemiluminescence detection was performed. […] The total RAS level was detected using a pan-RAS antibody (SCBT, sc-166691). […]

Consider `C=CC(=O)N1CCN(c2ncnc3c(F)c(-c4c(O)cccc4F)c(Cl)cc23)CC1` [ARS1620], for which the “binding of 12VC1 to KRAS(G12C) after reaction with ARS1620” value at KRAS(G12C) [1] was “abolished”. The “ERK activation in H358 cells” value with ERK activation (pERK) is “effectively inhibited”.
Regarding `NS(=O)(=O)OC[C@@H]1C[C@@H](n2ccc3c(N[C@H]4CCc5ccccc54)ncnc32)C[C@@H]1O` [MLN4924], the “effect on RAS degradation by VHL-monobody fusion” value at KRAS(G12C) [2] is “rescued”.
On the same count and under the same terms, with `CC(C)C[C@@H](C=O)NC(=O)[C@H](CC(C)C)NC(=O)[C@H](CC(C)C)NC(=O)OCc1ccccc1` [MG132] (Cbz-Leu-Leu-Leu-aldehyde) the entry was “rescued”.
